Measurements taken from patent US20200078360A1, “SMALL MOLECULE DUAL INHIBITORS OF EGFR/PI3K AND USES THEREOF” (The Regents of the University of Michigan, priority 2016, published 2020).

Experiments:
[1] = system: EGFR and PI3K pathway signaling; assay: cellular EGFR and PI3K pathway signaling (Western blots); type: cell-based; conditions: FIG. 4
Experimental: Cells or tumors were lysed in NP-40 lysis buffer [25 mmolL Tris-HCl (pH 7.6), 150 mmol/L NaCl, 1% Nonidet P-40, 10% glycerol, 1 mmol/L EDTA, 1 mmol/L dithiothreitol, and protease and phosphatase inhibitors], rocked for 30 minutes at 4° C., and centrifuged at 13,200 rpm for 20 minutes at 4° C. Protein concentration was determined by BioRad Protein Assays and lysates were subsequently subjected to SDS gel electrophoresis. Proteins were transferred to polyvinylidene fluoride (PVDF) membranes and probed with primary antibodies recognizing p-EGFR tyr1068), EGFR, p-HER2 (tyr1248), HER2, p-AKT (ser473), p-AKT (thr308), AKT, pERK1/2 (thr202/tyr204), ERK1/2, pS6K (ser235/236), S6K, and cleaved PARP (all from Cell Signaling Technology) and beta actin (Abcam). After incubation with anti-rabbit HRP-linked secondary antibody (Jackson ImmunoResearch Laboratories, Inc.), proteins were detected using chemiluminescence (GE Healthcare).

HCT-116 (KRASmt) tumors = assay: single agent activity against HCT-116 tumors; type: in vivo; conditions: FIG. 5
[2] = metabolic stability (FIG. 2); type: in vitro ADME
[3] = system: ERBB and PI3K family members; assay: potency and selectivity against kinase family members (FIG. 1); type: biochemical
[4] = tolerability of daily oral dosing; type: in vivo; conditions: daily oral dosing of 100 mg/kg, FIG. 6
Experimental: (§1) For the xenograft studies established from the patient-derived xenograft (PDX) models (UM CRC 14-929 and UM CRC 15-1269), female 6- to 7-week-old NCR nude mice (CrTac:NCr-Foxnlnu from Taconic) were implanted subcutaneously with low-passage PDX tumor fragments (30 mg) into the region of the right axilla. For the xenograft studies established from cell lines (CT-26), cells were injected (1×10^6 cells per injection) into the flanks of female 6- to 7-week old NCR nude mice. In both cases, the mice were randomized into treatment groups and treatments initiated when tumors reached 100 to 200 mg. […] Subcutaneous tumor volume and body weights were measured two to three times a week. Tumor volumes were calculated by measuring two perpendicular diameters with calipers and using the formula: tumor volume ¼ (length x width^2)/2. Percent treated/control (% TC) was calculated by dividing the median treated tumor weight by the median control tumor weight and multiplying by 100 on the last day of treatment. […] Increase in lifespan was calculated by dividing the median increase in lifespan (days) by the median survival time of the vehicle control group. […]

xenograft = assay: in vivo efficacy in combination with MEK inhibitors (FIG. 22); design: species or system mice
Experimental: as §1

RKO (BRAFmt) tumors = assay: single agent activity against RKO tumors; type: in vivo; conditions: FIG. 5

For `CS(=O)(=O)Nc1cc(-c2ccc3ncnc(Nc4ccc(F)c(Cl)c4)c3c2)cnc1Cl` [MTX-211], the “modulation of cellular EGFR and PI3K pathway signaling” value [1] was “modulates cellular EGFR and PI3K pathway signaling”, the “activity against HCT-116 (KRASmt) tumors” value (HCT-116 (KRASmt) tumors) was “single agent activity” and the metabolic stability [2] was “favorable metabolic stability”. The “potency and selectivity against ERBB and PI3K family members” value [3] was “potent and highly selective”, the tolerability [4] was “well tolerated” and the “in vivo efficacy when combined with MEK inhibitors” value (xenograft) was “in vivo potentiation of MTX-211 efficacy”. For the same compound, the “activity against RKO (BRAFmt) tumors” value (RKO (BRAFmt) tumors) was “single agent activity”.
